Results reported in patent publication US20060116360A1, “Method of administering anti-angiogenic agents and a method of treating disease using same” (priority 2004, published 2006).
Entries after “also recorded” stand apart in the source; their conditions may differ. Marks after values point to notes of the source that are not given here.

Experiments:
[1] = test system: vascular endothelial cell proliferation; conditions: endothelial versus tumor cell proliferation; cited from earlier work
[2] = test system: Tumor cell lines (Lewis lung carcinoma or MDA-MB-231); experiment: Wash-out in vitro anti-proliferation studies (cell counts) with ENMD-1198; assay type: cell-based
Protocol: Tumor cell lines (Lewis lung carcinoma or MDA-MB-231) were treated in vitro for varying times with varying concentrations of ENMD-1198. Over the course of a three-day study, on each study day the cells were exposed to ENMD-1198 for varying times (1, 2, 4, 6, or 24 hours) at the indicated concentrations. The medium was then removed and replaced with medium without ENMD-1198 for the remainder of each 24-hour period. For the 24-hour exposure wells, the medium was changed every day to provide 72 hours continuous exposure. Anti-proliferative activity was determined by cell counts after the third day of treatment.

[3] = test system: Lewis lung carcinoma; experiment: Lewis lung carcinoma experimental pulmonary metastasis model; assay type: in vivo, mice; conditions: for antitumor activity, T/C: 100 mg/kg/day
Excerpt: A pharmacodynamic paradigm relating 2ME2 pharmacokinetics to activity in vivo was developed. Dose-response relationships were established for 2ME2 following administration by (a) i.v. bolus administration, (b) oral gavage, (c) i.p. bolus injection, (d) i.p. dose fractionation, (e) continuous i.p. infusion, or (f) drinking water ad libitum in animal models, including an experimental pulmonary metastatic Lewis lung carcinoma model, primary tumor cell xenograft models, and a model of rheumatoid arthritis. Plasma 2ME2 concentration was temporally assessed by GC-MS or LC-MS/MS methodology, and pharmacokinetic parameters were defined at effective doses.
These studies assess the effect of route of administration on the anti-tumor activity of 2ME2 in an orthotopic model of murine lung cancer. Three days following the intravenous injection of Lewis lung carcinoma (“LLC”), groups of ten mice were treated with 2ME2 (200 mg/kg) once every 24 hours (q.d.) by either oral gavage (p.o.) or intraperitoneal (i.p.) injection.
FIG. 1, Panel B: 2.5×10^5 Lewis lung carcinoma cells in a volume of 0.2 ml were i.v. injected into the lateral tail vein of C57BL/6 male mice, 5-6 weeks of age (Jackson Labs). Treatment was initiated three days later by daily i.v. injection with 2ME2. Following the final day of therapy, mice were sacrificed, lungs removed, washed in phosphate buffered saline and weighed. Results are expressed as lung weight gain in treated versus control animals.
Dose-dependent inhibition of pulmonary metastases was observed following daily bolus administration of 2ME2. Fractionating a bolus q.d. injection (once every 24 hours, 2 mg/injection, 100 mg/kg/day) into four smaller, equal doses (q6hr, 0.5 mg/injection, 100 mg/kg/day) improved the antitumor activity of 2ME2 (T/C=0.30 and 0.05, respectively, p<0.05).
(§1) In further support of this paradigm, a significant inhibition of pulmonary metastases was obtained in tumor-bearing mice given 2ME2 by continuous infusion using Alzet pumps. Three days after injection of LLC cells, therapy was initiated i.p. with either vehicle control or with 2ME2 delivered through 7-day osmotic pumps (see FIG. 3A). The daily target levels of 2ME2 were calculated assuming an average pump rate of […]. To achieve a target level of 200 mg/kg/day, the concentration of 2ME2 in the osmotic pumps was prepared at 150 mg/mL. Asterisks indicate groups statistically different from vehicle control (α=0.05) as shown in A. To determine the PK profile of 2ME2 using this delivery scheme, non-tumor bearing male C57BL/6 mice (6 weeks of age) were treated i.p. for up to 7 days with 2ME2 at 1.8 mg/day (˜100 mg/kg/day) using 7-day osmotic pumps. On days 2, 4, and 7, plasma samples were collected and plasma 2ME2 levels were determined as described above (see FIG. 3B).
In further support of this paradigm, a significant inhibition of pulmonary metastases was obtained in tumor-bearing mice given 2ME2 ad libitum access through their drinking water.

[4] = test system: collagen-induced arthritis; experiment: Rat collagen-induced arthritis model, radiographic scores; assay type: in vivo
Excerpt: Using relevant PK data for any given formulation in a human or animal, it is possible for one skilled in the art to devise a dosing strategy-a combination of dose level and dose frequency-which will result in substantially continuous maintenance of the plasma level of the agent within the desired concentration range and so maximize the pharmacological activity, in this case anti-arthritic or anti-inflammatory activity.

[5] = test system: Tumor cell lines (Lewis lung carcinoma or MDA-MB-231); experiment: Wash-out in vitro anti-proliferation studies (BrdU) with 2ME2; assay type: cell-based
Protocol: To mimic the effect of cyclic levels of 2ME2 seen after daily dosing, and to compare this to the effects of continuous exposure to 2ME2, we carried out a series of wash-out in vitro anti-proliferation studies. Tumor cell lines (Lewis lung carcinoma or MDA-MB-231) were treated in vitro for varying times with varying concentrations of 2ME2. Over the course of a three-day study, on each study day the cells were exposed to 2ME2 for varying times (1, 2, 4, 6, or 24 hours) at the indicated concentrations. The medium was then removed and replaced with medium without 2ME2 for the remainder of each 24-hour period. Anti-proliferative activity was determined using a BrdU proliferation assay according to the manufacturer's instructions after the third day of treatment (see FIGS. 4A and 4B).

[6] = Plasma 2ME2 pharmacokinetics in non-tumor bearing C57BL/6 mice; assay type: in vivo; conditions: for Cmin / Tmax / T½ / Cmax / AUC0-24: i.p.
Protocol: On day 7, plasma samples were collected at selected time points, and plasma unconjugated 2ME2 levels were determined using LC-MS/MS methodology.
The data for 0.5 mg q.i.d. over the first six hours was used to model steady state levels over a 24 hr. time period as shown in FIG. 2. Pharmacokinetic parameters were determined by noncompartmental analysis using WinNonLin (Pharsight, Mountain View, Calif.).
as §1

[7] = test system: LLC cell line; experiment: Wash-out in vitro proliferation study mimicking i.v. dosing; assay type: cell-based; conditions: 3microM 2ME2 for 2 hours, then medium alone
Protocol: FIG. 1, Panel C: We designed a “wash-out” in vitro proliferation study to mimic the exposure profile following i.v. dosing. The LLC cell line was plated in 96-well plates. After 24 hours, medium containing 3microM 2ME2 was added. Cells were exposed to 3microM 2ME2 for 2 hours. The medium was then removed and replaced with medium alone (medium: DMEM/F12 (1:1)+10% FBS+2mM L-Glutamine).

[8] = test system: H2122 human NSCLC cells; experiment: Orthotopic H2122 NSCLC rat tumor model, survival; assay type: in vivo, rats
Protocol: Female athymic nude rats were injected i.t. with H2122 human NSCLC cells (1×10^6 in 0.2 mL). Seven days later, daily therapy was initiated p.o. with either vehicle control or 2ME2 at 10 or 60 or 300 mg/kg/d (n=15 rats/group). Animals were monitored closely for signs of morbidity and median survival times (MST) were determined. The study was terminated 50 days post tumor cell injection. In a separate cohort of non-tumor-bearing rats, plasma 2ME2 concentrations were determined at selected time points following a single oral gavage at 60 and 300 mg/kg. The PK data in Table 3 represents the range of 2ME2 concentrations in a 24 hour period. […] Using relevant PK data for any given formulation in a human or animal, it is possible for one skilled in the art to devise a dosing strategy—a combination of dose level and dose frequency—which will result in substantially continuous maintenance of the plasma level of the agent within the desired concentration range and so maximize the pharmacological activity, in this case anti-tumor activity.

[9] = Plasma 2ME2 pharmacokinetics in non-tumor bearing C57BL/6 mice; assay type: in vivo; conditions: ad libitum drinking water, range over a 24 hr period
[10] = short-term incubation, even at high concentrations
[11] = 0.5 q.i.d., modelled from first six hours

**Q.** With `CO[C@@H]1[C@H](OC(=O)NC(=O)CCl)CC[C@]2(CO2)[C@H]1[C@@]1(C)O[C@@H]1CC=C(C)C` [AGM-1470] as the compound, how does the “lower concentration for half-maximal inhibition of vascular endothelial cell proliferation than of tumor cell proliferation” value [1] read?
**A.** 4 logs

**Q.** With `COc1cc2c(cc1C(N)=O)CC[C@@H]1[C@@H]2CC[C@]2(C)C=CC[C@@H]12` [ENMD-1198] as the compound, how does the “inhibition of proliferation in vitro” value ([2]; continuous exposure (72 hours)) read?
**A.** maximal inhibition of proliferation

**Q.** And the “anti-proliferative activity in vitro” value [2, 10]?
**A.** does not result in much anti-proliferative activity

**Q.** With `COc1cc2c(cc1O)CC[C@@H]1[C@@H]2CC[C@]2(C)[C@@H](O)CC[C@@H]12` [Formulation 2ME2, 2-methoxyestradiol] as the compound, how does the “inhibition of pulmonary metastases, T/C” value ([3]; 2ME2 200 mg/kg q.d. i.p. injection) read?
**A.** 0.17

**Q.** What about the “inhibition of pulmonary metastases, T/C” value ([3]; 2ME2 200 mg/kg q.d. oral gavage (p.o.)) of the same compound?
**A.** 0.28

**Q.** And the “inhibition of pulmonary metastases, T/C” value ([3]; 2ME2 ad libitum through drinking water)?
**A.** 0.16

**Q.** What about the “antitumor activity, T/C” value ([3]; bolus q.d., 2 mg/injection) of the same compound?
**A.** 0.30

**Q.** What about the “growth inhibition of pulmonary metastases” value ([3]; continuous i.p. infusion, Alzet osmotic pumps, calculated dose ~100 mg/kg/day) of the same compound?
**A.** 89%

**Q.** And the “anti-tumor activity in vivo (lung weight gain)” value ([3]; daily i.v. injection, transiently high levels)?
**A.** did not result in significant anti-tumor activity

**Q.** And the “antitumor activity, T/C” value ([3]; q6hr, 0.5 mg/injection)?
**A.** 0.05

**Q.** What about the “radiographic scores on day 28” value ([4]; 2ME2 50 mg/kg p.o. b.i.d) of the same compound?
**A.** 2.11±0.18

**Q.** And the “radiographic scores on day 28” value ([4]; 2ME2 60 mg/kg s.c. continuous infusion (Alzet pumps))?
**A.** 1.5±0.18

**Q.** What about the “radiographic scores on day 28” value ([4]; 2ME2 100 mg/kg p.o. q.d.) of the same compound?
**A.** 2.88±0.21

**Q.** What about the “inhibition of proliferation in vitro” value ([5]; continuous exposure) of the same compound?
**A.** maximal inhibition of proliferation

**Q.** And the “anti-proliferative activity in vitro” value [5, 10]?
**A.** does not result in much anti-proliferative activity

**Q.** And the Cmin ([6]; 0.5 q.d., day 7)?
**A.** 1.46 ng/mL

**Q.** What about the Tmax ([6]; 0.5 q.d., day 7) of the same compound?
**A.** 0.5 h

**Q.** What about the T½ ([6]; 0.5 q.d., day 7) of the same compound?
**A.** 1.1 h

**Q.** What about the Cmax ([6]; 0.5 q.d., day 7, plasma unconjugated 2ME2) of the same compound?
**A.** 325 ng/mL

**Q.** And the AUC0-24 ([6]; 0.5 q.d., day 7, = AUC0-6*4)?
**A.** 826.5^a ng/mL*hr

**Q.** What about the AUC0-24 [6, 11] of the same compound?
**A.** 836.1 ng·h/mL

**Q.** And the Cmin [6, 11]?
**A.** 1.50 ng/mL

**Q.** What about the Tmax [6, 11] of the same compound?
**A.** 18.5 h

**Q.** And the T½ [6, 11]?
**A.** 1.1 h

**Q.** What about the Cmax ([6]; 0.5 q.i.d., steady state over 24 hr modelled from first six hours) of the same compound?
**A.** 326.09 ng/mL

**Q.** And the AUC0-24 ([6]; 2.0 q.d., day 7)?
**A.** 13570.9 ng·h/mL

**Q.** What about the Cmax ([6]; 2.0 q.d., day 7) of the same compound?
**A.** 14070 ng/mL

**Q.** What about the Cmin ([6]; 2.0 q.d., day 7) of the same compound?
**A.** 0.86 ng/mL

**Q.** What about the Tmax ([6]; 2.0 q.d., day 7) of the same compound?
**A.** 0.5 h

**Q.** What about the T½ ([6]; 2.0 q.d., day 7) of the same compound?
**A.** 3.2 h

**Q.** What about the plasma exposure levels ([6]; continuous i.p. infusion, Alzet osmotic pumps, ~100 mg/kg/day) of the same compound?
**A.** 9 to 25 ng/mL

**Q.** What about the “anti-proliferative effect of transient exposure” value [7] of the same compound?
**A.** poor anti-proliferative effect; also recorded: did not result in much anti-proliferative activity

**Q.** What about the “% Survival on Day 50” value ([8]; 2ME2 10 mg/kg/d p.o.) of the same compound?
**A.** 13%

**Q.** And the “Median Survival Time” value ([8]; 2ME2 10 mg/kg/d p.o.)?
**A.** 18.5 days

**Q.** And the “% Survival on Day 50” value ([8]; 2ME2 60 mg/mk/d p.o.)?
**A.** 20%

**Q.** And the “Median Survival Time” value ([8]; 2ME2 60 mg/mk/d p.o.)?
**A.** 26 days

**Q.** What about the “% Survival on Day 50” value ([8]; 2ME2 300 mg/kg/d p.o.) of the same compound?
**A.** 47%

**Q.** What about the “Median Survival Time” value ([8]; 2ME2 300 mg/kg/d p.o.) of the same compound?
**A.** 43 days

**Q.** What about the “increase in median survival time as compared to diluent-treated controls” value ([8]; oral gavage, plasma 2ME2 3-17 ng/mL) of the same compound?
**A.** 2.5 fold

**Q.** What about the “plasma 2ME2 concentrations” value [9] of the same compound?
**A.** 3 to 15 ng/mL
